# Active and inactive are the calls of the source. The calls are words filed in the database; no cut-off is given here.
# Experiments:
# [1] = target: 5-hydroxytryptamine receptor 2A (Homo sapiens, UniProt P28223); experiment: Displacement of [3H]Ketanserin from recombinant human 5-HT2A receptor extracted from CHO cell membrane incubated for 60 mins by radioligand binding assay; assay type: cell membranes
# [2] = Plasma protein binding in Sprague-Dawley rat at 10 uM incubated for 30 mins; assay type: ADME, cell-free; conditions: read-out: PPB (converted)
# [3] = Plasma protein binding in Cynomolgus monkey at 0.1 uM incubated for 30 mins; assay type: ADME, cell-free, Macaca fascicularis; conditions: read-out: PPB (converted)
# [4] = Metabolic stability in macaque liver microsomes assessed as drug elimination at 10 umol/L incubated for 5 mins in presence of NADPH by LC-MS/MS analysis; assay type: ADME, Microsome; conditions: macaca, 10 µM, dose 10 µmol/L
# [5] = Metabolic stability in macaque liver microsomes assessed as compound remaining at 10 umol/L incubated upto 120 mins in presence of NADPH by LC-MS/MS analysis; assay type: ADME, Microsome; conditions: macaca, dose 10 µmol/L, read-out: Stability
# [6] = Half life in Sprague-Dawley rat at 1 mg/kg, iv measured for 24 hrs by UPLC/MS/MS analysis; assay type: ADME, organism-based; conditions: in vivo
# [7] = Tmax in Sprague-Dawley rat at 1 mg/kg, iv measured for 24 hrs by UPLC/MS/MS analysis; assay type: ADME, organism-based; conditions: in vivo
# [8] = Apparent volume of distribution during terminal phase in Sprague-Dawley rat at 1 mg/kg, iv measured for 24 hrs by UPLC/MS/MS analysis; assay type: ADME, organism-based; conditions: in vivo
# [9] = Half life in Sprague-Dawley rat at 1 mg/kg, po measured for 24 hrs by UPLC/MS/MS analysis; assay type: ADME, organism-based; conditions: in vivo
# [10] = Cmax in Sprague-Dawley rat at 1 mg/kg, po measured for 24 hrs by UPLC/MS/MS analysis; assay type: ADME, organism-based; conditions: in vivo
# [11] = Half life in Sprague-Dawley rat at 3 mg/kg, po measured for 24 hrs by UPLC/MS/MS analysis; assay type: ADME, organism-based; conditions: in vivo
# [12] = Oral bioavailability in Sprague-Dawley rat at 3 mg/kg measured for 24 hrs by UPLC/MS/MS analysis; assay type: ADME, organism-based; conditions: in vivo
# Rattus norvegicus [13] = experiment: Antihypertensive activity in 2K2C renovascular hypertensive Sprague-Dawley rat model assessed as systolic blood pressure at 10 mg/kg, po measured after 9 weeks (Rvb ~ 202 mmHg); assay type: functional
# Rattus norvegicus [14] = experiment: Effect on heart rate in 2K2C renovascular hypertensive Sprague-Dawley rat model at 10 mg/kg, po measured after 9 weeks; assay type: functional, organism-based
# Rattus norvegicus [15] = experiment: Effect on postural hypotension in Sprague-Dawley rat assessed as change in systolic blood pressure at 2.5 mg/kg, po treated for >30 mins followed by induction of postural hypotension measured immediately after postural change (reference value: 131 +/- 9 mmHg); assay type: functional; conditions: 0.5 h
# Rattus norvegicus [16] = experiment: Effect on postural hypotension in Sprague-Dawley rat assessed as change in systolic blood pressure at 2.5 mg/kg, po treated for >30 mins followed by induction of postural hypotension measured 3 secs after postural change (reference value: 124 +/- 10 mmHg); assay type: functional; conditions: time > 30.05 min, 0.5008 h
# Rattus norvegicus [17] = experiment: Effect on postural hypotension in Sprague-Dawley rat assessed as change in systolic blood pressure at 10 mg/kg, po treated for >30 mins followed by induction of postural hypotension measured 5 secs after postural change (reference value: 126 +/- 12 mmHg); assay type: functional; conditions: time > 30.08 min, 0.5013 h
# Rattus norvegicus [18] = experiment: Effect on postural hypotension in Sprague-Dawley rat assessed as change in systolic blood pressure at 2.5 mg/kg, po treated for >30 mins followed by induction of postural hypotension measured 40 secs after postural change (reference value: 128 +/- 11 mmHg); assay type: functional; conditions: time > 30.67 min, 0.5112 h
# Rattus norvegicus [19] = experiment: Effect on postural hypotension in Sprague-Dawley rat assessed as change in systolic blood pressure at 10 mg/kg, po treated for >30 mins followed by induction of postural hypotension measured 40 secs after postural change (reference value: 128 +/- 11 mmHg); assay type: functional; conditions: time > 30.67 min, 0.5112 h
# Rattus norvegicus [20] = experiment: Effect on postural hypotension in Sprague-Dawley rat assessed as change in systolic blood pressure at 2.5 mg/kg, po treated for >30 mins followed by induction of postural hypotension measured 60 secs after postural change (reference value: 127 +/- 10 mmHg); assay type: functional; conditions: time > 31 min
# [21] = Acute toxicity in Sprague-Dawley rat assessed as change in morphology of animal at 250 to 1000 mg/kg, po single administration measured for 14 days; assay type: organism-based; conditions: in vivo, 336 h, dose 250-1000 mg/kg, time 14 day
# [22] = Acute toxicity in Sprague-Dawley rat assessed as drug tolerance at 250 to 1000 mg/kg, po single administration measured for 14 days; assay type: organism-based; conditions: in vivo, 336 h, dose 250-1000 mg/kg, time 14 day
# [23] = Toxicity in Sprague-Dawley rat assessed as unplanned animal mortality at 10 to 100 mg/kg, po qd treated for 13 weeks consecutively measured after 4 week recovery period; assay type: organism-based; conditions: in vivo, 2856 h, dose 10-100 mg/kg, time 17 weeks
# [24] = Toxicity in Sprague-Dawley rat assessed as body weight anomaly at 10 mg/kg, po qd treated for 13 weeks consecutively measured after 4 week recovery period; assay type: organism-based; conditions: in vivo, 2856 h, time 17 weeks
# [25] = Toxicity in male Sprague-Dawley rat assessed as reduction in body weight at 100 mg/kg, po qd treated for 4 days consecutively; assay type: organism-based; set-up: scale not given: the % may be the effect or the level left; conditions: in vivo, 96 h, time 4 day
# [26] = Tmax in female Sprague-Dawley rat at 100 mg/kg, po measured on day 1 by UP/LC/MS/MS analysis; assay type: ADME, organism-based; conditions: in vivo, time 1 day
# [27] = Cmax in male Sprague-Dawley rat at 30 mg/kg, po measured on day 1 by UP/LC/MS/MS analysis; assay type: ADME, organism-based; conditions: in vivo, time 1 day
# [28] = AUC (0 to t) in female Sprague-Dawley rat at 30 mg/kg, po measured on day 1 by UP/LC/MS/MS analysis; assay type: ADME, organism-based; conditions: in vivo, time 1 day
# [29] = AUC (0 to t) in female Sprague-Dawley rat at 100 mg/kg, po measured on day 1 by UP/LC/MS/MS analysis; assay type: ADME, organism-based; conditions: in vivo, time 1 day
# [30] = Cmax in female Sprague-Dawley rat at 10 mg/kg, po qd treated for 13 weeks consecutively measured after recovery period on day 91 by UP/LC/MS/MS analysis; assay type: ADME, organism-based; conditions: in vivo, time 91 day
# [31] = Cmax in male Sprague-Dawley rat at 30 mg/kg, po qd treated for 13 weeks consecutively measured after recovery period on day 91 by UP/LC/MS/MS analysis; assay type: ADME, organism-based; conditions: in vivo, time 91 day
# [32] = Cmax in female Sprague-Dawley rat at 30 mg/kg, po qd treated for 13 weeks consecutively measured after recovery period on day 91 by UP/LC/MS/MS analysis; assay type: ADME, organism-based; conditions: in vivo, time 91 day
# [33] = Cmax in male Sprague-Dawley rat at 100 mg/kg, po qd treated for 13 weeks consecutively measured after recovery period on day 91 by UP/LC/MS/MS analysis; assay type: ADME, organism-based; conditions: in vivo, time 91 day
# [34] = AUC (0 to t) in male Sprague-Dawley rat at 30 mg/kg, po qd treated for 13 weeks consecutively measured after recovery period on day 91 by UP/LC/MS/MS analysis; assay type: ADME, organism-based; conditions: in vivo, time 91 day
# [35] = Toxicity in Sprague-Dawley rat assessed as drug tolerance at 10 to 100 mg/kg, po qd treated for 13 weeks; assay type: organism-based; conditions: in vivo, 2184 h, dose 10-100 mg/kg
# 5-hydroxytryptamine receptor 2A, sequence (P28223 whole entry): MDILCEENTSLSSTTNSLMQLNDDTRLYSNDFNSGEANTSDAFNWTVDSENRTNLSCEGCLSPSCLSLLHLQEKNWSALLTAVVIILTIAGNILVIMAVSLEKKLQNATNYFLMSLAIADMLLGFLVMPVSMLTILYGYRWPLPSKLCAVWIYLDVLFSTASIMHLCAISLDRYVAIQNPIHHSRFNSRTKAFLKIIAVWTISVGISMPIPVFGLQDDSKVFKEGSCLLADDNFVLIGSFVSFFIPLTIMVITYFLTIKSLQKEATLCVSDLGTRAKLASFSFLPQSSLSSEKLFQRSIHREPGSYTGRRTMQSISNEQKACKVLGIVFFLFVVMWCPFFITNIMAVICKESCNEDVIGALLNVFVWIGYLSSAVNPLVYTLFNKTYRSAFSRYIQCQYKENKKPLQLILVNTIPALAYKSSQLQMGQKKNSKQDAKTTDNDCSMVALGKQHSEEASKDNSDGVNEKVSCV
smiles,measurement,setting,value
Cl.c1ccc2c(c1)nnn2CCCCN1CCN(c2nsc3ccccc23)CC1,IC50,[1],0.27 nM
same,Ki,[1],0.079 nM
same,"fraction unbound at 0.5 h, 10 µM",[2],0.017
same,"fraction unbound at 0.5 h, 0.1 µM",[3],0.015
same,Drug excretion,[4],Active
same,"remaining at 2 h, 10 µM",[5],1.5%
same,half-life,[6],78 min
same,Tmax,[7],15 min
same,Vz/F,[8],4.5 L
same,half-life,[9],90 min
same,Cmax,[10],33.3 ng/mL
same,half-life,[11],129 min
same,bioavailability,[12],31.9%
same,Activity,Rattus norvegicus [13],169 mmHg
same,Activity,Rattus norvegicus [14],Active
same,Activity,Rattus norvegicus [15],96 mmHg
same,Activity,Rattus norvegicus [16],90 mmHg
same,Activity,Rattus norvegicus [17],81 mmHg
same,Activity,Rattus norvegicus [18],92 mmHg
same,Activity,Rattus norvegicus [19],85 mmHg
same,Activity,Rattus norvegicus [20],93 mmHg
same,Activity,[21],Non-Toxic
same,Activity,[22],Non-Toxic
same,Activity,[23],Non-Toxic
same,Activity,[24],Non-Toxic
same,Activity,[25],~ 5.4%
same,Tmax,[26],2 h
same,Cmax,[27],109 ng/mL
same,AUC(0-t) at 24 h,[28],1440 ng·h/mL
same,AUC(0-t) at 24 h,[29],7910 ng·h/mL
same,Cmax,[30],140 ng/mL
same,Cmax,[31],238 ng/mL
same,Cmax,[32],333 ng/mL
same,Cmax,[33],538 ng/mL
same,AUC(0-t) at 2184 h,[34],672 ng·h/mL
same,Activity,[35],Non-Toxic

# — ChEMBL document CHEMBL5614376, “Discovery of MT-1207: A Novel, Potent Multitarget Inhibitor as a Promising Clinical Candidate for the Treatment of Hypertension” (J Med Chem, 2024)
